Test results as given in publication PMC4385830, “Group I Paks as therapeutic targets in NF2-deficient meningioma” (Oncotarget, 2015).

Assays:
Experiment in all cases: Kinase selectivity, Z'-LYTE
Format in all cases: biochemical
P1K3C2B (P13K-C2-beta) = molecular target: T1, P1K3C2B (P13K-C2-beta) (Homo sapiens, UniProt O00750)
T1 construct: purchased Invitrogen (Life Technologies) SelectScreen Z'-LYTE
Protocol: (§1) Kinase selectivity was assessed using a commercial service that employs a fluorescence-based, coupled-enzyme assay based on the differential sensitivity of phosphorylated and non-phosphorylated peptides to proteolytic cleavage (Invitrogen, Z'-LYTE®). This assay uses recombinant protein kinases and assay mixed optimized for each particular kinase (http://www.lifetechnologies.com/us/en/home/life-science/drug-discovery/target-and-lead-identification-and-validation /kinasebiology/kinase-activity-assays/z-lyte.html).

MAPK1 (ERK2) = molecular target: T2, MAPK1 (ERK2) (Homo sapiens, UniProt P28482)
T2 construct: purchased Invitrogen (Life Technologies) SelectScreen Z'-LYTE
T2 sequence (P28482 whole entry): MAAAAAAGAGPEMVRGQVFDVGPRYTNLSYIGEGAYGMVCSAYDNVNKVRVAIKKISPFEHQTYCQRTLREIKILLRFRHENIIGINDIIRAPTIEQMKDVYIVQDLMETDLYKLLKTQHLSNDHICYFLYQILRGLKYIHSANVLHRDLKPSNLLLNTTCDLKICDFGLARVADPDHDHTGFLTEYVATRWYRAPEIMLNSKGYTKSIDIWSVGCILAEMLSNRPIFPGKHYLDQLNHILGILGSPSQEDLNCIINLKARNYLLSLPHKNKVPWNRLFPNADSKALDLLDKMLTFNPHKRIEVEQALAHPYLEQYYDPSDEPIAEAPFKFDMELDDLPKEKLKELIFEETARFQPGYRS
Protocol: as §1

PRKCQ (PKC theta) = molecular target: T3, PRKCQ (PKC theta) (Homo sapiens, UniProt Q04759)
T3 construct: purchased Invitrogen (Life Technologies) SelectScreen Z'-LYTE
Protocol: as §1

YES1 = molecular target: T4, YES1 (Homo sapiens, UniProt P07947)
T4 construct: purchased Invitrogen (Life Technologies) SelectScreen Z'-LYTE
T4 sequence (P07947 whole entry): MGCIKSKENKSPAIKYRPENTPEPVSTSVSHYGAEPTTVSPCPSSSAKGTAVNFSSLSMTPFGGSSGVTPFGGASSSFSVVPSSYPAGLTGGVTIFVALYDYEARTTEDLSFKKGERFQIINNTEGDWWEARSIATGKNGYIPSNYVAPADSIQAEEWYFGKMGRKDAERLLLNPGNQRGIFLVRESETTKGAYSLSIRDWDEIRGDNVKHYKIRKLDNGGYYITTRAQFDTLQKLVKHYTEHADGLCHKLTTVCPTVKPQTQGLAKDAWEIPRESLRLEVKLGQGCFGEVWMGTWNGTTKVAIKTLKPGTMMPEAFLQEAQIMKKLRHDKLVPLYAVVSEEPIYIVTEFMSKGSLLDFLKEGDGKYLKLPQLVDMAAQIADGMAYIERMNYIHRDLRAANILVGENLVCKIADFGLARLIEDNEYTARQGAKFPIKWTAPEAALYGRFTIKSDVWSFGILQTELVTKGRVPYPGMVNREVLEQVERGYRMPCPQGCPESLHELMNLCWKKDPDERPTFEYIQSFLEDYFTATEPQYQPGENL
Protocol: as §1

BRAF = molecular target: T5, BRAF (Homo sapiens, UniProt P15056)
T5 construct: purchased Invitrogen (Life Technologies) SelectScreen Z'-LYTE
T5 sequence (P15056 whole entry): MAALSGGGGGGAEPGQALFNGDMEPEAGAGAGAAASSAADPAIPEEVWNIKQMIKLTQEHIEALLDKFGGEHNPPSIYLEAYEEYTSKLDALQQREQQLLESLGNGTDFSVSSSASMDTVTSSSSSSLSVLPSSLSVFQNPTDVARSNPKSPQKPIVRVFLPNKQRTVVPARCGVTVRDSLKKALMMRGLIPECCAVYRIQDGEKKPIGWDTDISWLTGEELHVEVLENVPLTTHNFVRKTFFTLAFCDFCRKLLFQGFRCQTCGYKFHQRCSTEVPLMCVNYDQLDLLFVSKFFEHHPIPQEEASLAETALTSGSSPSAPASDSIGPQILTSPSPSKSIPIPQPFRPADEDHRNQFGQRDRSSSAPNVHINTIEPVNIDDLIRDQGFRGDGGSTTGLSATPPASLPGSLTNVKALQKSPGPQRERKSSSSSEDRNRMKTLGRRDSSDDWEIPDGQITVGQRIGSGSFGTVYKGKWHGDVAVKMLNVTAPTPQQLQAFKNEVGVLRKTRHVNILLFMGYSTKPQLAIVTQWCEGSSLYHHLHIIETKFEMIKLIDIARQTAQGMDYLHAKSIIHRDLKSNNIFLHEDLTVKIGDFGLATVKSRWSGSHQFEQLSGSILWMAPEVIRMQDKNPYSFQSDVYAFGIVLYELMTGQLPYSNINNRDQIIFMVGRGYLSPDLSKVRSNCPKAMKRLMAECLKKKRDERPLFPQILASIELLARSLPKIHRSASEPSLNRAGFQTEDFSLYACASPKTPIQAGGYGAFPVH
Protocol: as §1

ERBB4 (HER4) = molecular target: T6, ERBB4 (HER4) (Homo sapiens, UniProt Q15303)
T6 construct: purchased Invitrogen (Life Technologies) SelectScreen Z'-LYTE
T6 sequence (Q15303 26-1308): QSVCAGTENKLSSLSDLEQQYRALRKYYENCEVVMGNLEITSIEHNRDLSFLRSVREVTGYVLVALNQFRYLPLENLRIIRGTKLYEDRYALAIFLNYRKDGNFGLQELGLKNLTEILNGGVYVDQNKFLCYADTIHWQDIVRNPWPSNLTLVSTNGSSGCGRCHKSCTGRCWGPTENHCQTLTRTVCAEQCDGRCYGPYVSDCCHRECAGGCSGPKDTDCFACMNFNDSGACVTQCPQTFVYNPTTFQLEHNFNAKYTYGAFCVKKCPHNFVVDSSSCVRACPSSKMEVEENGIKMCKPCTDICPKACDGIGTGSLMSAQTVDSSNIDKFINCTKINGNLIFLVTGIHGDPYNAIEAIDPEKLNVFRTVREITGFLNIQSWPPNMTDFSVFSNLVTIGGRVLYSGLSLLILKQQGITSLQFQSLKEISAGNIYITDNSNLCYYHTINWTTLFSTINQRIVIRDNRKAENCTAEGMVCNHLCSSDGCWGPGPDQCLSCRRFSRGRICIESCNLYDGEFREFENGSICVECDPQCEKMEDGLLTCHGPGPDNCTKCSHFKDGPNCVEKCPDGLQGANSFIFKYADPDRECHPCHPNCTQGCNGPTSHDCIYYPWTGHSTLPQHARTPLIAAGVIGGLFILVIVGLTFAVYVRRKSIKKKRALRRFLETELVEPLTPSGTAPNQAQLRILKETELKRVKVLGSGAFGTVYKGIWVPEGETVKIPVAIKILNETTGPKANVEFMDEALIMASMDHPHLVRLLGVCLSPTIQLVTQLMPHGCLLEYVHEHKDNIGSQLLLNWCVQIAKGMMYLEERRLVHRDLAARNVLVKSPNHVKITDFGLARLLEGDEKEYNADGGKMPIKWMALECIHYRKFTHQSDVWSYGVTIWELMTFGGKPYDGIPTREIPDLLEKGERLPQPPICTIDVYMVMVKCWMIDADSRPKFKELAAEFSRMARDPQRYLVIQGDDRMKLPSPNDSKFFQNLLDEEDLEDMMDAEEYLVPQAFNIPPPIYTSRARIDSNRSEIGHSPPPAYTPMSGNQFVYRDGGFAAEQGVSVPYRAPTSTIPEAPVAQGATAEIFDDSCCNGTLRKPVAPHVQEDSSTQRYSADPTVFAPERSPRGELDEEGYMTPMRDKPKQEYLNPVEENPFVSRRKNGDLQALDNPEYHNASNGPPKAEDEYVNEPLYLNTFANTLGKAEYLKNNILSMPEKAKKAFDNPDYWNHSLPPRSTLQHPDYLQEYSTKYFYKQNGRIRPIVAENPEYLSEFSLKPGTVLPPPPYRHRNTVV
Protocol: as §1

FLT3 = molecular target: T7, FLT3 (Homo sapiens, UniProt P36888)
T7 construct: purchased Invitrogen (Life Technologies) SelectScreen Z'-LYTE
T7 sequence (P36888 27-993): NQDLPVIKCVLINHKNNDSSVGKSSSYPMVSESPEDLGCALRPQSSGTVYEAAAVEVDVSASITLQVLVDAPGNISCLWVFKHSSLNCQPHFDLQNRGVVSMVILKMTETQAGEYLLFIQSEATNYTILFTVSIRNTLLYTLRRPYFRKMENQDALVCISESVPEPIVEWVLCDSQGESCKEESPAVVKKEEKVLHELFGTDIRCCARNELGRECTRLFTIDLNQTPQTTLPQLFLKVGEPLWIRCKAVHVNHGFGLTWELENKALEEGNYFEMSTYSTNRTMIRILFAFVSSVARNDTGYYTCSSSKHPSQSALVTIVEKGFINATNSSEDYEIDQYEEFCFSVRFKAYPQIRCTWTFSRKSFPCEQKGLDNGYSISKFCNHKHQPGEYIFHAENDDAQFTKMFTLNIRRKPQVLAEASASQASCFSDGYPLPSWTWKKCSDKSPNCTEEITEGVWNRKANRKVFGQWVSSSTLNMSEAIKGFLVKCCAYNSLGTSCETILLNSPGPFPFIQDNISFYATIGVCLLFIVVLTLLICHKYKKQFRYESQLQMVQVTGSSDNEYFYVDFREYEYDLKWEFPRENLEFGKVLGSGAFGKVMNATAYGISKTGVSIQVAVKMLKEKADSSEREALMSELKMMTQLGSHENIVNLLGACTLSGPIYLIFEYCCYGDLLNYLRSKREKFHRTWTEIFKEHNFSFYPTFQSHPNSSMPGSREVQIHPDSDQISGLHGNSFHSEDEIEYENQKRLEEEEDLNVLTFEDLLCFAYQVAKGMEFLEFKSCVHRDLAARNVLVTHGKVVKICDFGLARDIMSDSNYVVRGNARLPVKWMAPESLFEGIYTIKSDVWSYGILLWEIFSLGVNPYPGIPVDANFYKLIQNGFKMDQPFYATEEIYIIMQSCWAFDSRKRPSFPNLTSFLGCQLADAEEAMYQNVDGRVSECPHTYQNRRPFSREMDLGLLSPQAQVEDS
Protocol: as §1

ADRBK1 (GRK2) = molecular target: T8, ADRBK1 (GRK2) (Homo sapiens, UniProt P25098)
T8 construct: purchased Invitrogen (Life Technologies) SelectScreen Z'-LYTE
T8 sequence (P25098 1-689): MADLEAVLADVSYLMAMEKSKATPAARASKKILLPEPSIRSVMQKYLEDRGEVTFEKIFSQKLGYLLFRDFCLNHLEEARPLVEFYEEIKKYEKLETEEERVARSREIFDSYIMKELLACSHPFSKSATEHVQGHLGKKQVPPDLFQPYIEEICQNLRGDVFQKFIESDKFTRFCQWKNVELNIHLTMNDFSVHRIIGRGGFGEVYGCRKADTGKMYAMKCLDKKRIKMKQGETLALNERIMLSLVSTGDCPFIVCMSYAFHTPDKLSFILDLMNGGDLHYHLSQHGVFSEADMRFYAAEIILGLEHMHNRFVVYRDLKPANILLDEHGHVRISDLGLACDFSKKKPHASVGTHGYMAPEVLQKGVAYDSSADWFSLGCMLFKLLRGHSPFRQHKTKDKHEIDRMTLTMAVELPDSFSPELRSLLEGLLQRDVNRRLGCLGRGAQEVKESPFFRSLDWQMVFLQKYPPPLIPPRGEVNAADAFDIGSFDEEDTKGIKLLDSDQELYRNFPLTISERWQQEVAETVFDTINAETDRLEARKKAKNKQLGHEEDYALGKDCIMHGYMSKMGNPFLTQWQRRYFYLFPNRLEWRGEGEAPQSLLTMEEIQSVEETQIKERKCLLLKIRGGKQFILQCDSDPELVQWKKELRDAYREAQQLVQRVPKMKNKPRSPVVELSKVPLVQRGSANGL
Protocol: as §1

PRKACA (PKA) = molecular target: T9, PRKACA (PKA) (Homo sapiens, UniProt P17612)
T9 construct: purchased Invitrogen (Life Technologies) SelectScreen Z'-LYTE
Protocol: as §1

PIM2 = molecular target: T10, PIM2 (Homo sapiens, UniProt Q9P1W9)
T10 construct: purchased Invitrogen (Life Technologies) SelectScreen Z'-LYTE
T10 sequence (Q9P1W9 whole entry): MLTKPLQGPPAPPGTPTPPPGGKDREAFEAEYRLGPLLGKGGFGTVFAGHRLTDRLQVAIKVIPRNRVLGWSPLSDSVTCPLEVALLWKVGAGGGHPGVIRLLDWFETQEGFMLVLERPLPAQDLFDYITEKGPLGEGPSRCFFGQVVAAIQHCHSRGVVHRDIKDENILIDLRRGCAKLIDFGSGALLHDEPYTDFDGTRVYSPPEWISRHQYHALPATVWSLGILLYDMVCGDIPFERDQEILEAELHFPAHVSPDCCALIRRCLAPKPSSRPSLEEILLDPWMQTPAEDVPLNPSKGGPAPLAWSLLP
Protocol: as §1

ERBB2 (HER2) = molecular target: T11, ERBB2 (HER2) (Homo sapiens, UniProt P04626)
T11 construct: purchased Invitrogen (Life Technologies) SelectScreen Z'-LYTE
Protocol: as §1

T1 sequence (O00750 whole entry, stated change not applied): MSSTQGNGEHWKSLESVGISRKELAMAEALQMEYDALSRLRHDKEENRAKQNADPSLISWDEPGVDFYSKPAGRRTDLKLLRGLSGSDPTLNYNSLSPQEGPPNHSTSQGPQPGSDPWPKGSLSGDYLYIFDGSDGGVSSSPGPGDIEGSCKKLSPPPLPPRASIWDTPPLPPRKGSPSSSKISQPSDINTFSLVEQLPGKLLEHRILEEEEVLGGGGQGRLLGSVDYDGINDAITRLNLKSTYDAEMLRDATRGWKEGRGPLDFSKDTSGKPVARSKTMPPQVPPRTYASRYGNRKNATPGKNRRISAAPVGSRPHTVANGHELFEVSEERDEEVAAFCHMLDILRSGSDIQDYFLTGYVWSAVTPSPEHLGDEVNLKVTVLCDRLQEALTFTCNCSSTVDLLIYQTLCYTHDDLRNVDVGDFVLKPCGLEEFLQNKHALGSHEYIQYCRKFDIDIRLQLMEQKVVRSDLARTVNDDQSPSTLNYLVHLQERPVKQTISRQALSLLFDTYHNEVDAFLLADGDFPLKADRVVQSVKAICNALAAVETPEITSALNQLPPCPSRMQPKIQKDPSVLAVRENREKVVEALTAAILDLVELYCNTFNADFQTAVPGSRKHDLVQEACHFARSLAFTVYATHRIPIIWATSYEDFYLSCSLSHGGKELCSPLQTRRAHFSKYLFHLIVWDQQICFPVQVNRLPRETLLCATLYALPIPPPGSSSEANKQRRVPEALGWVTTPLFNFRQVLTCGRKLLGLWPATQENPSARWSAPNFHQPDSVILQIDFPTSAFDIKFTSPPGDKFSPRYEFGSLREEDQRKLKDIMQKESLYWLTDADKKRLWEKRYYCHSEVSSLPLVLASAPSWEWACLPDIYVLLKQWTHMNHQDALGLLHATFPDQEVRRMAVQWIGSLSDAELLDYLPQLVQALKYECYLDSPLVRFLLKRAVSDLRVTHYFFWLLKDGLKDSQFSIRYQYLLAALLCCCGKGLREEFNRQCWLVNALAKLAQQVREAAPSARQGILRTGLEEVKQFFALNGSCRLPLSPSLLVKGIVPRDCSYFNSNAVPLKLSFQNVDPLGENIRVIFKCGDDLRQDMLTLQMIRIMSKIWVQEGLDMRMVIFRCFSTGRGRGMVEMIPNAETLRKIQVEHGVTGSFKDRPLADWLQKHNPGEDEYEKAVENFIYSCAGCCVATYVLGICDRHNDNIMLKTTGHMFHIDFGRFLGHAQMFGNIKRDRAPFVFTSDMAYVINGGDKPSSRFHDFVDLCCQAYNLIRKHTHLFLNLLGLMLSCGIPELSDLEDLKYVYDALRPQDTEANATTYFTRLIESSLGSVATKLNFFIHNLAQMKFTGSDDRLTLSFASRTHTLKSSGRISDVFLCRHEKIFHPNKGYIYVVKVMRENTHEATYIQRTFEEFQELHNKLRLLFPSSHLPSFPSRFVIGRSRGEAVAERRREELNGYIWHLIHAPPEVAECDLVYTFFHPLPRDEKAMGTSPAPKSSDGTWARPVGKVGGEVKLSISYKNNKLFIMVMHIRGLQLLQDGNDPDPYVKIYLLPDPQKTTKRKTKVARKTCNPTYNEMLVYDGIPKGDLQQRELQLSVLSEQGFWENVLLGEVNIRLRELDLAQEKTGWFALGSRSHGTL

| % inhibition of activity (P1K3C2B (P13K-C2-beta)) [%] | % inhibition of activity (MAPK1 (ERK2)) [%] | % inhibition of activity (PRKCQ (PKC theta)) [%] | % inhibition of activity (YES1) [%] | % inhibition of activity (BRAF) [%] | % inhibition of activity (ERBB4 (HER4)) [%] | % inhibition of activity (FLT3) [%] | % inhibition of activity (ADRBK1 (GRK2)) [%] | % inhibition of activity (PRKACA (PKA)) [%] | % inhibition of activity (PIM2) [%] | % inhibition of activity (ERBB2 (HER2)) [%] | SMILES |
| --- | --- | --- | --- | --- | --- | --- | --- | --- | --- | --- | --- |
| 8 | 23 | 97 | 86 | 52 | 2 | 78 | 10 | 100 | 4 | 4 | Cc1nc(Nc2[nH]nc3c2CN(C(=O)N[C@H](CN(C)C)c2ccccc2)C3(C)C)c2sccc2n1 [PF3758309, reference compound] |
| 2 | 5 | 24 | 18 | 7 | 0 | 10 | 0 | 1 | 3 | 2 | CCn1c(=O)c(-c2ccc(-c3cncc(C)n3)cc2Cl)cc2cnc(NCCC3CCN(C)CC3)nc21 [Frax1036] |

| SMILES | % inhibition of activity (P1K3C2B (P13K-C2-beta)) [%] | % inhibition of activity (MAPK1 (ERK2)) [%] | % inhibition of activity (PRKCQ (PKC theta)) [%] | % inhibition of activity (YES1) [%] | % inhibition of activity (BRAF) [%] | % inhibition of activity (ERBB4 (HER4)) [%] | % inhibition of activity (FLT3) [%] | % inhibition of activity (ADRBK1 (GRK2)) [%] | % inhibition of activity (PRKACA (PKA)) [%] | % inhibition of activity (PIM2) [%] | % inhibition of activity (ERBB2 (HER2)) [%] |
| --- | --- | --- | --- | --- | --- | --- | --- | --- | --- | --- | --- |
| CCn1c(=O)c(-c2ccc(-c3noc(C)n3)cc2Cl)cc2cnc(Nc3ccc(C4CCN(C)CC4)cc3)nc21 [Frax716] | −1 | 7 | 12 | 89 | 72 | 77 | 92 | 10 | 7 | 1 | 8 |
